Test results: patent publication US8394825B2, “Compound” (Sterix Limited, priority 2007, dated 2013)

Assays:
E1-STS [1] = biological target: T1, E1-STS (Homo sapiens, UniProt P08842); details: cited from earlier work
T1 sequence (P08842 22-583): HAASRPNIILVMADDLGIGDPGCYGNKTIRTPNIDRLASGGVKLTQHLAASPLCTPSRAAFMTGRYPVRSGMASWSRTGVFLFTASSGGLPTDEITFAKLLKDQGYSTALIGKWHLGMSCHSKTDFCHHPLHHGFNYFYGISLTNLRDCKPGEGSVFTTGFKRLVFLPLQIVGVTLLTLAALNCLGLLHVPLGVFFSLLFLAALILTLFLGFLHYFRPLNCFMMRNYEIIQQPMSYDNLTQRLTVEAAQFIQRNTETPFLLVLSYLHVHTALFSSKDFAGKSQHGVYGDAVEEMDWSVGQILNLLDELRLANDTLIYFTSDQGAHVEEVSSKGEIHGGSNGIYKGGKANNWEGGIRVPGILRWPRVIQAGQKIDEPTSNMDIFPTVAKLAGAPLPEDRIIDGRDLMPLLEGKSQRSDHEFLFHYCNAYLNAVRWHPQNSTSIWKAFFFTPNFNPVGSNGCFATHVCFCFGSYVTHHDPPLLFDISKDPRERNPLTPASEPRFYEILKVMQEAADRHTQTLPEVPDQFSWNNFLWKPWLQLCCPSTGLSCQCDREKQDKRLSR

uterotrophic activity = details: cited from earlier work; for oestrogenicity: rat, in vivo
[2] = cited from earlier work
E1-STS [3] = biological target: T1, E1-STS; design: endogenous in cells; host or cells: MCF-7 cells (intact); details: intact MCF-7 cells, 0.1 nM; cited from earlier work
DU145 cells = assay: Antiproliferative assay in DU145 cells, WST-1 cell proliferation assay, 96 hours (GI50); type: cell-based; details: Homo sapiens, DU-145, 96 hours post-treatment
Outline: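 DU145 cells seeded at 5000 cells/well, treated with […] compound or vehicle for 96 h. Viability read by WST-1, expressed as percent of mean control, GI50 derived; triplicate experiments.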

Molecule	GI50 (DU145 cells; triplicate) [µM]	melting point [°C]	also measured
oestrone-3-N-sulphamate			mode of E1-STS enzyme inhibition (inactivation) (E1-STS [1]): weaker non-time-dependent inactivators
COc1cc2c(cc1OS(N)(=O)=O)CC[C@@H]1[C@@H]2CC[C@]2(C)C(=O)CC[C@@H]12 [2-methoxyoestrone-3-O-sulphamate]			potency as steroid sulphatase inhibitor relative to EMATE (E1-STS [1]): equipotent with EMATE; oestrogenicity (uterotrophic activity): devoid of oestrogenicity
C[C@]12CC[C@@H]3c4ccc(OS(=O)(=O)O)cc4CC[C@H]3[C@@H]1CCC2=O [E1S, oestrone sulphate]			half-life in blood [2]: 10 to 12 h
CC12CCC3c4ccc(OS(N)(=O)=O)cc4CCC3C1CCC2=O (stereo not shown) [EMATE, oestrone-3-sulphamate]			mode of E1-STS enzyme inhibition (inactivation) (E1-STS [1]): time- and concentration-dependent manner; oestrogenicity (uterotrophic activity): potent oestrogenic properties; oral uterotrophic activity relative to estradiol (uterotrophic activity; rats, oral): 100 times; inhibition of E1-STS activity (E1-STS [3]): more than 99%
oestrone-3-S-sulphamate			mode of E1-STS enzyme inhibition (inactivation) (E1-STS [1]): weaker non-time-dependent inactivators
COc1cc2c(cc1OCc1ccccc1)CCN(Cc1cc(OC)c(OC)c(OC)c1)C2 [compound 19, 6-Benzyloxy-7-methoxy-2-(3,4,5-trimethoxybenzyl)-1,2,3,4-tetrahydroisoquinoline]	10 to 50	144 to 145	
COc1cc2c(cc1OCc1ccccc1)CCN(C(=O)c1cccc(C#N)c1)C2=O [compound 135, 6-Benzyloxy-2-(3-cyanobenzoyl)-7-methoxy-3,4-dihydro-2H-isoquinoline-1-one]	> 100	195 to 196	
COc1cc2c(cc1O)CCN(C(=O)c1ccc(OC)c(OC)c1)C2 [compound 118, 2-(3,4-Dimethoxybenzoyl)-6-hydroxy-7-methoxy-1,2,3,4-tetrahydroisoquinoline]	> 100	132 to 133	
COc1ccc(CN2CCc3cc(OCc4ccccc4)c(OC)cc3C2)cc1 [compound 3, 6-Benzyloxy-7-methoxy-2-(4-methoxybenzyl)-1,2,3,4-tetrahydroisoquinoline]	50 to 100	96 to 97	
COc1cc2c(cc1OCc1ccccc1)CCN(C(=O)c1ccccc1OC)C2=O [compound 130, 6-Benzyloxy-7-methoxy-2-(2-methoxybenzoyl)-3,4-dihydro-2H-isoquinoline-1-one]	> 100	163 to 164	
COc1cc2c(cc1O)CCN(Cc1cccc(C#N)c1)C2 [compound 64, 2-(3-Cyanobenzyl)-6-hydroxy-7-methoxy-1,2,3,4-tetrahydroisoquinoline]	> 100	113 to 155	
COc1ccc(C(=O)N2CCc3cc(OCc4ccccc4)c(OC)cc3C2=O)cc1 [compound 128, 6-Benzyloxy-7-methoxy-2-(4-methoxybenzoyl)-3,4-dihydro-2H-isoquinolin-1-one]	> 100	151 to 152	
COc1cc2c(cc1O)CCN(Cc1cc(OC)c(OC)c(OC)c1)C2 [compound 54, 6-Hydroxy-7-methoxy-2-(3,4,5-trimethoxybenzyl)-1,2,3,4-tetrahydroisoquinoline]	< 10	170 to 171	
COc1cc2c(cc1OCc1ccccc1)CCN(Cc1cccc(C)c1)C2 [compound 7, 6-Benzyloxy-7-methoxy-2-(3-methylbenzyl)-1,2,3,4-tetrahydroisoquinoline]	> 100	81 to 82	
COc1cc2c(cc1O)CCN(Cc1ccccc1OC)C2 [compound 41, 6-Hydroxy-7-methoxy-2-(2-methoxybenzyl)-1,2,3,4-tetrahydroisoquinoline]	> 100	128 to 129	

Now from value to molecule, other results behind:

GI50 (DU145 cells; triplicate) [µM]	melting point [°C]	Molecule	also measured
> 100	136 to 137	COc1cc2c(cc1OCc1ccccc1)CCN(Cc1cc(OC)c(OC)c(OC)c1)C2=O [compound 158, 6-(benzyloxy)-7-methoxy-2-(3,4,5-trimethoxybenzyl)-3,4-dihydro-2H-isoquinolin-1-one]	
> 100	202 to 203	COc1cc2c(cc1O)CCN(S(=O)(=O)c1cccc(OC(F)(F)F)c1)C2 [compound 179, 6-Hydroxy-7-methoxy-2-(3-trifluoromethoxy-benzenesulfonyl)-1,2,3,4-tetrahydroisoquinoline]	
	172 to 176	COc1cc2c(cc1OS(N)(=O)=O)CC(C)(C)N(C(=O)c1cc(OC)c(OC)c(OC)c1)C2 [compound 236, Sulfamic acid 7-methoxy-3,3-dimethyl-2-(3,4,5-trimethoxy-benzoyl)-1,2,3,4-tetrahydro-isoquinolin-6-yl ester]	GI50 (DU145 cells; 50% growth inhibition): > 100 µM
> 100	176 to 179	COc1cc2c(cc1O)CCN(S(=O)(=O)c1cccc(C)c1)C2 [compound 180, 6-Hydroxy-7-methoxy-2-(toluene-3-sulfonyl)-1,2,3,4-tetrahydroisoquinoline]	
< 10	175 to 176	COc1cc2c(cc1O)CCN(C(=O)c1cc(OC)c(OC)c(OC)c1)C2=O [compound 143, 6-Hydroxy-7-methoxy-2-(3,4,5-trimethoxybenzoyl)-3,4-dihydro-2H-isoquinolin-1-one]	
< 10	198 to 199	COc1cc(OC)cc(C(=O)N2CCc3cc(O)c(OC)cc3C2=O)c1 [compound 141, 2-(3,5-Dimethoxybenzoyl)-6-hydroxy-7-methoxy-3,4-dihydro-2H-isoquinolin-1-one]	
> 100	195 to 197	COc1cccc(S(=O)(=O)N2CCc3cc(O)c(OC)cc3C2=O)c1 [compound 201, 6-Hydroxy-7-methoxy-2-(3-methoxy-benzenesulfonyl)-3,4-dihydro-2H-isoquinolin-1-one]	
> 100	166 to 167	COc1cc(CN2CCc3cc(O)c(OC)cc3C2=O)cc(OC)c1 [compound 162, 2-(3,5-dimethoxybenzyl)-6-hydroxy-7-methoxy-3,4-dihydro-2H-isoquinolin-1-one]	
> 100	175 to 178	COc1cc2c(cc1O)CCN(S(=O)(=O)c1cccc(Cl)c1)C2 [compound 182, 2-(3-Chloro-benzenesulfonyl)-6-hydroxy-7-methoxy-1,2,3,4-tetrahydroisoquinoline]	
> 100	222 to 224	COc1cc2c(cc1O)CCN(S(=O)(=O)c1ccccc1OC)C2=O [compound 200, 6-Hydroxy-7-methoxy-2-(2-methoxy-benzenesulfonyl)-3,4-dihydro-2H-isoquinolin-1-one]	
	159 to 162	COc1cc2c(cc1O)CC(C)(C)N(C(=O)c1cc(OC)c(OC)c(OC)c1)C2 [compound 234, (6-Hydroxy-7-methoxy-3,3-dimethyl-3,4-dihydro-1H-isoquinolin-2-yl)-(3,4,5-trimethoxy-phenyl)-methanone]	GI50 (DU145 cells; 50% growth inhibition): > 100 µM
> 100	82 to 83	COc1cc(CN2CCc3cc(OCc4ccccc4)c(OC)cc3C2=O)cc(OC)c1 [compound 157, 6-(Benzyloxy)-2-(3,5-dimethoxybenzyl)-7-methoxy-3,4-dihydro-2H-isoquinolin-1-one]	
	100 to 105	COc1cccc(CN2Cc3cc(OC)c(O)cc3CC2C)c1 (stereo not shown) [compound 217, 2-(3-Methoxybenzyl)-1,2,3,4-tetrahydro-7-methoxy-3-methylisoquinolin-6-ol]	GI50 (DU145 cells; 50% growth inhibition): < 10 µM
